Data set [1] in a line: The drug is tested on Z-030 corresponding to mouse gut metagenome with ENA study accession number: PRJEB37062 and ENA sample accession number: ERS12561829 for biotransformation under anaerobic condition. The drug concentrations were measured over 9 timepoints collected between 0 and 24 hours of incubation by liquid-chromatography-coupled mass spectrometry (LC–MS). As to conditions: 2 µM.

Data set [2] in a line: The drug is tested on Z-025 corresponding to rabbit gut metagenome with ENA study accession number: PRJEB37062 and ENA sample accession number: ERS12561824 for biotransformation under anaerobic condition. The drug concentrations were measured over 9 timepoints collected between 0 and 24 hours of incubation by liquid-chromatography-coupled mass spectrometry (LC–MS). As to conditions: 2 µM.

The nature of data set [3]: The drug is tested on Z-016 corresponding to mouse gut metagenome with ENA study accession number: PRJEB37062 and ENA sample accession number: ERS12561815 for biotransformation under anaerobic condition. The drug concentrations were measured over 9 timepoints collected between 0 and 24 hours of incubation by liquid-chromatography-coupled mass spectrometry (LC–MS). As to conditions: 2 µM.

Data set [4] is described as follows: The drug is tested on Z-008 corresponding to metagenome with ENA study accession number: PRJEB37062 and ENA sample accession number: ERS12561808 for biotransformation under anaerobic condition. The drug concentrations were measured over 9 timepoints collected between 0 and 24 hours of incubation by liquid-chromatography-coupled mass spectrometry (LC–MS). As to conditions: 2 µM.

A short description of data set [5]: The drug is tested on Z-005 corresponding to metagenome with ENA study accession number: PRJEB37062 and ENA sample accession number: ERS12561805 for biotransformation under anaerobic condition. The drug concentrations were measured over 9 timepoints collected between 0 and 24 hours of incubation by liquid-chromatography-coupled mass spectrometry (LC–MS). As to conditions: 2 µM.

Data set [6] in a line: The drug is tested on Z-004 corresponding to metagenome with ENA study accession number: PRJEB37062 and ENA sample accession number: ERS12561804 for biotransformation under anaerobic condition. The drug concentrations were measured over 9 timepoints collected between 0 and 24 hours of incubation by liquid-chromatography-coupled mass spectrometry (LC–MS). Conditions: 2 µM.

A short description of data set [7]: The drug is tested on WLS-310 corresponding to human gut metagenome with ENA study accession number: PRJEB37062 and ENA sample accession number: ERS12561785 for biotransformation under anaerobic condition. The drug concentrations were measured over 9 timepoints collected between 0 and 24 hours of incubation by liquid-chromatography-coupled mass spectrometry (LC–MS). Conditions: 2 µM.

Data set [8] is described as follows: The drug is tested on WLS-098 corresponding to human gut metagenome with ENA study accession number: PRJEB37062 and ENA sample accession number: ERS12561754 for biotransformation under anaerobic condition. The drug concentrations were measured over 9 timepoints collected between 0 and 24 hours of incubation by liquid-chromatography-coupled mass spectrometry (LC–MS). As to conditions: 2 µM.

Data set [9] is described as follows: The drug is tested on WLS-090 corresponding to human gut metagenome with ENA study accession number: PRJEB37062 and ENA sample accession number: ERS12561753 for biotransformation under anaerobic condition. The drug concentrations were measured over 9 timepoints collected between 0 and 24 hours of incubation by liquid-chromatography-coupled mass spectrometry (LC–MS). Conditions: 2 µM.

A short description of data set [10]: The drug is tested on WLS-086 corresponding to human gut metagenome with ENA study accession number: PRJEB37062 and ENA sample accession number: ERS12561752 for biotransformation under anaerobic condition. The drug concentrations were measured over 9 timepoints collected between 0 and 24 hours of incubation by liquid-chromatography-coupled mass spectrometry (LC–MS). As to conditions: 2 µM.

The nature of data set [11]: The drug is tested on WLS-039 corresponding to human gut metagenome with ENA study accession number: PRJEB37062 and ENA sample accession number: ERS12561746 for biotransformation under anaerobic condition. The drug concentrations were measured over 9 timepoints collected between 0 and 24 hours of incubation by liquid-chromatography-coupled mass spectrometry (LC–MS). Conditions: 2 µM.

Data set [12] in a line: The drug is tested on WLS-006 corresponding to human gut metagenome with ENA study accession number: PRJEB37062 and ENA sample accession number: ERS12561741 for biotransformation under anaerobic condition. The drug concentrations were measured over 9 timepoints collected between 0 and 24 hours of incubation by liquid-chromatography-coupled mass spectrometry (LC–MS). As to conditions: 2 µM.

For data set [13] the following is noted: human gut metagenome, 24 h, 2 µM.
The conditions of data set [14]: human gut metagenome, 24 h, 2 µM. This is another data set of the same source.
The conditions of data set [15]: human gut metagenome, 24 h, 2 µM. This is another data set of the same source.
For data set [16] the following is noted: human gut metagenome, 24 h, 2 µM. This is another data set of the same source.
For data set [17] the following is noted: human gut metagenome, 24 h, 2 µM. The source holds these as a separate data set.
The conditions of data set [18]: human gut metagenome, 24 h, 2 µM. The source holds these as a separate data set.
For data set [19] the following is noted: human gut metagenome, 24 h, 2 µM. This is another data set of the same source.
The conditions of data set [20]: human gut metagenome, 24 h, 2 µM. The source holds these as a separate data set.
Further: call rule not given here.

Regarding `COC(=O)[C@H]1[C@H]2C[C@@H]3c4[nH]c5cc(OC)ccc5c4CCN3C[C@H]2C[C@@H](OC(=O)c2cc(OC)c(OC)c(OC)c2)[C@@H]1OC` [RESERPINE], the “Bacterial Biotransformation” value in [1], in [2], in data set [3], in data set [4], in data set [5] and in data set [6] was “Compound NOT metabolized” throughout. Besides, the “Bacterial Biotransformation” value in data set [7], in [8], in data set [9], in data set [10], in [11] and in [12] was “Compound metabolized” each time. The “Bacterial Biotransformation” value in [13] was “Compound NOT metabolized”; in [14], “Compound NOT metabolized”; in data set [15], “Compound metabolized”; in data set [16] it was “Compound metabolized”; in [17], “Compound NOT metabolized”; in data set [18] it was “Compound NOT metabolized”. The “Bacterial Biotransformation” value in data set [19] is reported as “Compound NOT metabolized”; in data set [20], “Compound metabolized”.
`Nc1nc2ccc(OC(F)(F)F)cc2s1` [RILUZOLE]: the “Bacterial Biotransformation” value in data set [1] is recorded as “Compound NOT metabolized”; in [2], “Compound NOT metabolized”; in data set [3] it was “Compound NOT metabolized”; in [4], “Compound metabolized”; in data set [5], “Compound metabolized”; in data set [6], “Compound metabolized”. For the same compound, the “Bacterial Biotransformation” value in [7], in [8], in data set [9], in data set [10], in data set [11] and in [12] was “Compound metabolized” each time. For the same compound, the “Bacterial Biotransformation” value was “Compound NOT metabolized” in data set [13]; “Compound NOT metabolized” in data set [14]; “Compound metabolized” in data set [15]; “Compound metabolized” in data set [16]; “Compound metabolized” in [17]; “Compound metabolized” in [18]. For the same compound, the “Bacterial Biotransformation” value in [19] was “Compound NOT metabolized”; in data set [20] it was “Compound metabolized”.
Turning to `CC(C)c1nc(CN(C)C(=O)N[C@H](C(=O)N[C@@H](Cc2ccccc2)C[C@H](O)[C@H](Cc2ccccc2)NC(=O)OCc2cncs2)C(C)C)cs1` [RITONAVIR], the “Bacterial Biotransformation” value was “Compound NOT metabolized” in [1]; “Compound metabolized” in data set [2]; “Compound metabolized” in [3]; “Compound metabolized” in data set [4]; “Compound metabolized” in [5]; “Compound NOT metabolized” in data set [6]. In addition, the “Bacterial Biotransformation” value in data set [7], in data set [8], in [9], in data set [10], in data set [11] and in [12] was “Compound metabolized” in each case. The “Bacterial Biotransformation” value in data set [13] is given as “Compound NOT metabolized”; in data set [14] it was “Compound NOT metabolized”; in data set [15] it was “Compound metabolized”; in data set [16], “Compound metabolized”; in data set [17] it was “Compound metabolized”; in [18], “Compound metabolized”. Besides, the “Bacterial Biotransformation” value is on record as “Compound NOT metabolized” in data set [19] and “Compound metabolized” in data set [20].
With `CC(C)NCC(O)c1ccc(NS(C)(=O)=O)cc1` (stereo not given) [SOTALOL], the “Bacterial Biotransformation” value in data set [1], in data set [2], in [3], in [4], in data set [5] and in data set [6] was “Compound NOT metabolized” each time. Also, the “Bacterial Biotransformation” value is “Compound NOT metabolized” in data set [7]; “Compound NOT metabolized” in data set [8]; “Compound metabolized” in data set [9]; “Compound NOT metabolized” in data set [10]; “Compound NOT metabolized” in data set [11]; “Compound NOT metabolized” in data set [12]. Besides, the “Bacterial Biotransformation” value in data set [13], in data set [14], in data set [15], in data set [16], in data set [17] and in [18] was “Compound NOT metabolized” in each case. Further, the “Bacterial Biotransformation” value in [19] and in data set [20] was “Compound NOT metabolized” in each case.
In the case of `CCN1CCCC1CNC(=O)c1cc(S(N)(=O)=O)ccc1OC` (stereo not given) [SULPIRIDE], the “Bacterial Biotransformation” value in [1] is given as “Compound NOT metabolized”; in [2] it was “Compound NOT metabolized”; in [3], “Compound NOT metabolized”; in [4] it was “Compound NOT metabolized”; in data set [5] it was “Compound NOT metabolized”; in [6] it was “Compound metabolized”. Besides, the “Bacterial Biotransformation” value in [7] is “Compound metabolized”; in data set [8], “Compound metabolized”; in [9] it was “Compound metabolized”; in data set [10], “Compound metabolized”; in data set [11], “Compound NOT metabolized”; in data set [12], “Compound metabolized”. In addition, the “Bacterial Biotransformation” value is reported as “Compound NOT metabolized” in data set [13]; “Compound NOT metabolized” in [14]; “Compound NOT metabolized” in data set [15]; “Compound metabolized” in data set [16]; “Compound NOT metabolized” in data set [17]; “Compound NOT metabolized” in data set [18]. Moreover, the “Bacterial Biotransformation” value in data set [19] is “Compound NOT metabolized”; in [20] it was “Compound metabolized”.

Values taken from ChEMBL document CHEMBL5724914, “Linking interpersonal differences in gut microbiota composition and drug biotransformation activity” (2024).
